These results are taken from patent US20040029197A1, “Novel human cancer/testis antigen and gene thereof” (priority 2000, published 2004).

This data set has as its system C1R-A24 cells. In words: Cytotoxity test (51Cr release) with peptide-stimulated CD8-positive T cells of a cancer patient. The settings on record: target C1R-A24 cells added with 1 iM of the peptide, effecter CD8-positive T cells after MLPC twice, six hours, FIG. 8. The format is cell-based, human. How it is done: Peripheral blood of a patient whose D40 gene expression in the tumor tissue was observed by RT-PCR method was multi-layered in Ficoll-Conray solution with specific gravity of 1.082 and the blood was separated to plasma, lymphocyte phase, Ficoll-Conray phase and erythrocyte phase from the top by centrifugation of 1500 rpm for 30 min. The lymphocyte phase was collected and cultured for a day in AIM-V, a serum-free medium, after which the cell population adhered to the bottom of the culture flask and the suspended cell population were separated by gently shaking the flask. The adhered cell population is a cell population called PBMC (peripheral blood mononuclear cells) which includes B cells, macrophages and dendritic cells that are so-called antigen-presenting cells (APC). […] The APC after the culture were treated with radioactivity in order to get rid of their proliferation ability.
On the other hand, the suspended cell population mainly contains T cells and these suspended cells were cultured in AIM−V+IL−2 for four days. […] These CD8-positive T cells were added to APC, which have been treated with radioactivity as mentioned above, and cultured for two days. […] Then the radioactivity of ^51Cr released from the target C1R-A24 cells were measured and the cytotoxity activity (%) was calculated. […]

Where no end group is shown, it is not given here.

As for “SYTIEINHRL [SYTIEINHRL, Ser-Tyr-Thr-Ile-Glu-Ile-Asn-His-Arg-Leu]”, the “cytotoxic activity of T cells derived from peripheral blood of a cancer patient” value is reported as “specifically injured target C1R-A24 cells”.
